# Reference: PMC11111404, “Discovery of potent small-molecule inhibitors of lipoprotein(a) formation” (Nature, 2024)
# Where two headings read alike, the source gives them in different places.
# Assays:
# [1] = biological target: T1, apo(a) KIV5–8 (Homo sapiens, UniProt P08519); test: ITC binding to apo(a) KIV5–8
# T1 construct: made in house
# T1 sequence (P08519 1043-1470 limits assumed): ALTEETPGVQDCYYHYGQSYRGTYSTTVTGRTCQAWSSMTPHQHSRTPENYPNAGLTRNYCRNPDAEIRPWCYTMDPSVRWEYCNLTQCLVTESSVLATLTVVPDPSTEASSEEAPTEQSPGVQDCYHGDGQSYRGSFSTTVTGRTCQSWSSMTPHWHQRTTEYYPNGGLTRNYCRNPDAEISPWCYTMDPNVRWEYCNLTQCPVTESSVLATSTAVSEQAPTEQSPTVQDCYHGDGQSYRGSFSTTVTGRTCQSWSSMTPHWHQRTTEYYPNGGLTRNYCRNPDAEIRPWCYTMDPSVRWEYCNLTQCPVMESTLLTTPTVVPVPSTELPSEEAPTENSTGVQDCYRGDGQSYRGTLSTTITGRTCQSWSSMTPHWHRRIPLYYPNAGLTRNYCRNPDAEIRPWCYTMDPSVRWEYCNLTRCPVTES
# Method: (§1) The nucleotide sequence encoding the human LPA gene (NP_005568.2) was inserted into a mammalian expression vector containing a cytomegalovirus promoter. Protein expression was performed by transient transfection of human embryonic kidney 293 (HEK293) cells cultured in serum-free medium. The culture medium was collected five days after transfection and human apo(a) protein was purified using L-lysine affinity chromatography. Nucleotide sequences encoding various KIV domains of human apo(a) and human and rat plasminogen were inserted into a pET21a Escherichia coli expression vector. Bacterial BL21(DE3) was used as the expression host, and the induction of protein expression was performed in 2× TY medium with 1 mM isopropyl β-D-1-thiogalactopyranoside at 37 °C for 5 h. Cells were collected and stored at –80 °C for subsequent protein purification and refolding. […] All protein concentrations were determined by A280.
# Experiments were performed on a MicroCal Auto-iTC200 titration calorimeter (Malvern Panalytical), with a cell volume of 200 μl and a 40-μl microsyringe. […] The microsyringe was loaded with a solution of the respective compounds, with the concentration measured by quantitative nuclear magnetic resonance, and was inserted into the calorimetric cell prefilled with the respective recombinant proteins of known concentration in ITC buffer. […]
# [2] = biological target: T2, Lp(a) assembly (recombinant human 16K apo(a) and apoB) (Homo sapiens, UniProt P08519); test: In vitro Lp(a) assembly assay; type: biochemical
# T2 construct: containing one KIV type 1, six KIV type 2 repeats, one each of KIV types 3–10 and one KV; expressed in transfected cells; host or cells: Conditioned medium of HEK293 (CRL-1573) stably expressing 16K apo(a), combined with conditioned medium of wild-type HepG2 (HB-8065) for endogenous apoB
# Method: HepG2 cells (HB-8065, ATCC) were cultured in Dulbecco’s modified Eagle’s medium, supplemented with 10% fetal bovine serum, 20 mM 4-(2-hydroxyethyl)-1-piperazineethanesulfonic acid (HEPES) and 100 U ml^−1 penicillin–streptomycin. apoB-conditioned media were collected after 24 h of culture at 37 °C and 5% CO2 from confluent wild-type HepG2 cells that endogenously express and secrete apoB. Apo(a)-conditioned media were collected after 24 h of culture at 37 °C and 5% CO2 from HEK293 cells (CRL-1573, ATCC) that stably express and secrete recombinant human 16K apo(a) protein containing one KIV type 1, six KIV type 2 repeats, one each of KIV types 3–10 and one KV.
# The assembly assay was conducted in 96-well polypropylene plates by combining HepG2 and apo(a)-HEK293-conditioned media in the presence of a range of compound concentrations. After a two-hour incubation period at 37 °C, the reaction was stopped by the addition of 6-aminocaproic acid. Lp(a) was detected using a sandwich enzyme-linked immunosorbent assay (ELISA), with a polyclonal goat anti-apo(a) capture antibody (Abcam ab31675) and a biotin-conjugated, polyclonal goat anti-apoB detection antibody (Abcam ab20898). In brief, ELISA plates were coated with 100 μl of the capture antibody at a 1:12,500 dilution (around 4 μg ml^−1) into HEPES-buffered saline (HBS), incubated overnight at 4 °C, washed and blocked by the addition of 200 μl of 1% casein. After removal of the blocking buffer, 20 μl of each of the assembly reactions or of a dilution series of purified human Lp(a) (Athens Research, 12-16-121601), diluted 1:5 into HBS supplemented with 0.5% casein, were added to the ELISA plate. […] Absorbance at 450 nm was measured on an Envision plate reader.
# The concentration of Lp(a) formed in each test condition was determined on the basis of the standard curve constructed from the purified human Lp(a) used as a reference standard, and was normalized to high (buffer) and low (no apoB) controls. […] Data were analysed in GraphPad Prism v.9.5.1.
# [3] = biological target: T3, full-length recombinant 16K apo(a) (Homo sapiens, UniProt P08519); test: Radioligand binding to full-length recombinant 16K apo(a)
# T3 construct: Full-length apo(a) and various shorter constructs were prepared as described; made in house
# Method: (§2) The nucleotide sequence encoding the human LPA gene (NP_005568.2) was inserted into a mammalian expression vector containing a cytomegalovirus promoter. Protein expression was performed by transient transfection of human embryonic kidney 293 (HEK293) cells cultured in serum-free medium. The culture medium was collected five days after transfection and human apo(a) protein was purified using L-lysine affinity chromatography. Nucleotide sequences encoding various KIV domains of human apo(a) and human and rat plasminogen were inserted into a pET21a Escherichia coli expression vector. Bacterial BL21(DE3) was used as the expression host, and the induction of protein expression was performed in 2× TY medium with 1 mM isopropyl β-D-1-thiogalactopyranoside at 37 °C for 5 h. Cells were collected and stored at –80 °C for subsequent protein purification and refolding. The frozen cell pellets were lysed and inclusion bodies were purified. The protein refolding was performed using the rapid-dilution method, and the refolded proteins were further purified by size-exclusion chromatography. All protein concentrations were determined by A280.
# (§3) Full-length apo(a) and various shorter constructs were prepared as described. Human and rat plasminogen, purified from plasma by affinity chromatography, were obtained from Innovative Research (IHGPG and IRPLG, respectively).
# (§4) All reagents used in the binding assays were prepared in assay buffer containing 50 mM Tris-HCl, pH 7.4, and 0.1% bovine serum albumin. All apo(a) proteins were diluted to a final concentration of 200 pM. Human and rat plasminogen were diluted into assay buffer, and 250 ng was added to each well.
# Saturation binding studies of ^3H-LSN3441732 or ^3H-LSN3374443 were conducted by adding to each well of a white-wall, clear-bottom 96-well plate, 50 µl each of (1) dimethyl sulfoxide (DMSO) or a saturating concentration (40 μM) of an unlabelled ligand; (2) protein diluted into assay buffer; (3) resuspended wheat germ agglutinin polyvinyltoluene scintillation proximity assay beads (2 mg ml^−1); and (4) a dilution series of radioligand. Plates were incubated for one to two hours at room temperature and counted on a Wallac Trilux 1450 liquid scintillation counter. Non-specific binding, defined as binding in the presence of the unlabelled ligand, was subtracted to determine specific binding. Specific binding was plotted as a function of ligand concentration, and a single-site binding equation of the form y = Bmax × x/(Kd + x) was fitted to the data, where Bmax is the maximum saturable binding and Kd is the equilibrium dissociation constant.
# [4] = biological target: T1, apo(a) KIV5–8; test: Radioligand binding to apo(a) KIV5–8; conditions: Experiment 1, read-out: Kd (nM) KIV5–8 Exp 1
# Method: as §1, with “h.” for “h. Cells were collected and stored at –80 °C for subsequent protein purification and refolding.”, “A280. […]” for “A280.”
# (§5) Saturation binding studies of ^3H-LSN3441732 or ^3H-LSN3374443 were conducted by adding to each well of a white-wall, clear-bottom 96-well plate, 50 µl each of (1) dimethyl sulfoxide (DMSO) or a saturating concentration (40 μM) of an unlabelled ligand; (2) protein diluted into assay buffer; (3) resuspended wheat germ agglutinin polyvinyltoluene scintillation proximity assay beads (2 mg ml^−1); and (4) a dilution series of radioligand. Plates were incubated for one to two hours at room temperature and counted on a Wallac Trilux 1450 liquid scintillation counter. […]
# [5] = biological target: T4, apo(a) KIV7–8 (Homo sapiens, UniProt P08519); test: Radioligand binding to apo(a) KIV7–8
# T4 construct: purified recombinant apo(a) KIV7–8 protein; made in house
# T4 sequence (P08519 1263-1470 limits assumed): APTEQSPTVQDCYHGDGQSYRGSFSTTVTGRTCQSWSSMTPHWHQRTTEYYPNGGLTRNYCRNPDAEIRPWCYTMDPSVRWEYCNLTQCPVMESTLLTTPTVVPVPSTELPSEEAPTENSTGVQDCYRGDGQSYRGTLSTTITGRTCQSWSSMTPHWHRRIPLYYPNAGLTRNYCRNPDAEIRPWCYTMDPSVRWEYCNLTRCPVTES
# Method: as §2, §3
# (§6) All reagents used in the binding assays were prepared in assay buffer containing 50 mM Tris-HCl, pH 7.4, and 0.1% bovine serum albumin. […]
# as §5
# [6] = biological target: T5, apo(a) KIV7 (Homo sapiens, UniProt P08519); test: Radioligand binding to apo(a) KIV7
# T5 construct: made in house
# Method: as §2, §3, §6, §5
# [7] = biological target: T6, apo(a) KIV8 (Homo sapiens, UniProt P08519); test: Radioligand binding to apo(a) KIV8
# T6 construct: made in house
# T6 sequence (P08519 1387-1465 limits assumed): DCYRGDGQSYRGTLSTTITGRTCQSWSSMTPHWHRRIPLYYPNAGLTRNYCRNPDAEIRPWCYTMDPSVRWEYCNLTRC
# Method: as §1, with “h.” for “h. Cells were collected and stored at –80 °C for subsequent protein purification and refolding.”, “A280. […]” for “A280.”
# as §5
# [8] = tested on: rat plasminogen; test: Saturation radioligand binding to rat plasminogen
# Method: as §3, §4
# as §5, with “counter. Non-specific binding, defined as binding in the presence of the unlabelled ligand, was subtracted to determine specific binding.” for “counter.”
# [9] = biological target: apo(a) KIV7; design: method as in PMID 11802713; conditions: binding to lysine-binding domain of apo(a) KIV7; cited from earlier work
# [10] = tested on: Lp(a) assembly; design: method as in PMID 11802713; conditions: cited from earlier work
# [11] = tested on: Lp(a); conditions: humans; cited from earlier work
# T3 sequence (P08519 20-2040): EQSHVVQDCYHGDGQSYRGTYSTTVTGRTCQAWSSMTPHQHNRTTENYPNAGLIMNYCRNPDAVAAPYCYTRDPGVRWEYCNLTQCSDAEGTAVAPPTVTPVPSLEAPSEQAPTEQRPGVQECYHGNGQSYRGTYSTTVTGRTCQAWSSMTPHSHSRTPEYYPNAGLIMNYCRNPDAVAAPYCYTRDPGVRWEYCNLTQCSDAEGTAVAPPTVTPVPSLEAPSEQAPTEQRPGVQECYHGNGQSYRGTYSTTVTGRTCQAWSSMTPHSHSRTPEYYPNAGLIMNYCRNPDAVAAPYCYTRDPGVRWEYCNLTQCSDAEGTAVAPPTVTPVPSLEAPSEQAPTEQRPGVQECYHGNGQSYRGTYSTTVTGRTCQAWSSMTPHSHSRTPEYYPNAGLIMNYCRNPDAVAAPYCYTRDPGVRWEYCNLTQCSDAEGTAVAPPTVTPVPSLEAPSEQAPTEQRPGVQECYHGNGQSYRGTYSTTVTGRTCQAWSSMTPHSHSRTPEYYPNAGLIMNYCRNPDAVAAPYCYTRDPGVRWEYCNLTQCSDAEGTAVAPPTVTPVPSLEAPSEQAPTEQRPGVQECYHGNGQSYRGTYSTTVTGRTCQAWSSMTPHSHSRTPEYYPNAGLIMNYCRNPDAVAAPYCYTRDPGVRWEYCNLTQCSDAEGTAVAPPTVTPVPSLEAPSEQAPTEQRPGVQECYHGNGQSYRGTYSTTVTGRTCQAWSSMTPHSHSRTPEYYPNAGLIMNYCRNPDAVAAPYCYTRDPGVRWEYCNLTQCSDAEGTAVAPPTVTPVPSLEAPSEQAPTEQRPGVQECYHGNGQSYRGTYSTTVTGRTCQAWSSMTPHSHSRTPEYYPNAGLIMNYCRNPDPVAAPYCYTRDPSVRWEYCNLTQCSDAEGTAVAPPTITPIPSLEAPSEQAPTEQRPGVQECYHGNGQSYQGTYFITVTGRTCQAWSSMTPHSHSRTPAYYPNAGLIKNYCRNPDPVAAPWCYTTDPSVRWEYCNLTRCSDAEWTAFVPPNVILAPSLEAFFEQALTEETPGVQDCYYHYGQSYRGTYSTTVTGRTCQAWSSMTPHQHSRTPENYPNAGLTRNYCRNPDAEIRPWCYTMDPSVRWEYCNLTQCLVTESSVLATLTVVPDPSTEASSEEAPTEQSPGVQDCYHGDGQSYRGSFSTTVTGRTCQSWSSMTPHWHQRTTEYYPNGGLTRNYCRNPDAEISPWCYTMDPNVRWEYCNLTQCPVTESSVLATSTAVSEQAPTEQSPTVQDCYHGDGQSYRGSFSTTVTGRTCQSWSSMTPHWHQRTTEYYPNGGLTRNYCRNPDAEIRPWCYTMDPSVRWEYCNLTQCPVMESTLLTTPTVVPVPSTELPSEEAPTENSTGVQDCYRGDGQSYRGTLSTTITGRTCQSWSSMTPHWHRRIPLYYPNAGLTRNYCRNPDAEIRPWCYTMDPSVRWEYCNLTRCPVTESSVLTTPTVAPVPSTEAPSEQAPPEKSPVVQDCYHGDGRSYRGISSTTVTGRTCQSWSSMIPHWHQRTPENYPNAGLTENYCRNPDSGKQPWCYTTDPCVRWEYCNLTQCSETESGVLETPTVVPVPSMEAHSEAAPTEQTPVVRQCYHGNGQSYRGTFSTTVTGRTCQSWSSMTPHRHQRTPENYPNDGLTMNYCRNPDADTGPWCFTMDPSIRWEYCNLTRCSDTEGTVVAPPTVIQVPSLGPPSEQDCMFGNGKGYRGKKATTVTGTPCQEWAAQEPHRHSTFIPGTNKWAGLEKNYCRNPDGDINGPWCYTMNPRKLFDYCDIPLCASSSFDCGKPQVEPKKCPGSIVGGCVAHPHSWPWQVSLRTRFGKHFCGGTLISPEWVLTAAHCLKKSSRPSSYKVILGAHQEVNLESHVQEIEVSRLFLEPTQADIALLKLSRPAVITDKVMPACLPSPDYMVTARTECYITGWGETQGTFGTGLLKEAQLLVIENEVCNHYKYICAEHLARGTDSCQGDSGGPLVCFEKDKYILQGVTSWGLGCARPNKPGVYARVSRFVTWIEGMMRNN
# T2 sequence (P08519 20-2040): as above
smiles,measurement,setting,value
COc1cccc(N2CCN(c3cccc(C[C@H](C(=O)O)[C@H]4CCNC4)c3)C2=O)c1 [LSN3374443],Kd,[1],< 15 nM
same,IC50,[2],36 nM
O=C(Nc1cccc(C[C@H](C(=O)O)[C@H]2CCNC2)c1)Nc1cccc(C[C@H](C(=O)O)[C@H]2CCNC2)c1 [^3H-LSN3441732],"Bmax, full-length apo(a)",[3]; direct radioligand binding,4.9 fmol ng^−1 apo(a)
same,Kd,"[3]; direct radioligand binding, mean",0.05 nM
same,ligands per molecule of apo(a),[3]; from Bmax,one
same,fold affinity increase versus ^3H-LSN3374443,[3]; full-length apo(a),50 fold
same,Kd,[4],0.33 nM
same,Kd,"[5]; direct radioligand binding, read-out: Kd, KIV7–8",0.21 nM
same,Kd,"[5]; radioligand binding, Experiment 1, read-out: Kd (nM) KIV7–8 Exp 1",0.32 nM
same,Kd,"[5]; radioligand binding, Experiment 2, read-out: Kd (nM) KIV7–8 Exp 2",0.1 nM
same,Kd,"[6]; direct radioligand binding, read-out: Kd, single KIV7",2.8 nM
same,Kd,"[6]; radioligand binding, Experiment 1, read-out: Kd (nM) KIV7 Exp 1",3 nM
same,Kd,"[6]; radioligand binding, Experiment 2, read-out: Kd (nM) KIV7 Exp 2",2.7 nM
same,Kd,"[7]; direct radioligand binding, read-out: Kd, single KIV8",2 nM
same,Kd,"[7]; radioligand binding, Experiment 1, read-out: Kd (nM) KIV8 Exp 1",3 nM
same,fold higher affinity for rat plasminogen than for human plasminogen,[8],50 fold
NC[C@H]1CC[C@H](C(=O)O)CC1 [tranexamic acid],Kd,[9],63000 nM
same,in vitro assembly of Lp(a),[10],inhibited
same,levels of Lp(a) in a small clinical study,[11],reduce the levels of Lp(a)
NCCCCCC(=O)O [ε-aminocaproic acid],Kd,[9],230000 nM
same,in vitro assembly of Lp(a),[10],inhibited
